Laboratory results as given in US7759345B2, “Antitumoral derivatives of ET-743” (priority 2001, dated 2010).

Experiments:
DU-145 = assay: Inhibition of cells growth by colorimetric assay (SRB), DU-145; type: cell-based; settings: SRB, 48 hours exposure; for GI50 / CC50: Homo sapiens, DU-145, 48 h; for TGI DU-145 / GI50: DU-145; for GI50: read-out: GI50 DU-145; for CC50: read-out: LC50 DU-145, DU-145
Method in brief: (§1)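 Cells in RPMI 1640 with 10% FBS were seeded at 5×10^3 per well, allowed 18 h to attach, then exposed to compound (10 to 10^−8 μg/ml, in DMSO/EtOH/PBS 0.5:0.5:99) for 48 h. After TCA fixation and SRB staining, bound dye was solubilized in Tris and OD read at 490 nm; GI, TGI and LC derived from triplicates.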

K-562 = assay: Inhibition of cells growth by colorimetric assay (SRB), K-562; type: cell-based; settings: SRB, 48 hours exposure; for GI50 / LC50 (50% cell killing): Homo sapiens, K562, 48 h; for GI50 / TGI K-562: K-562; for GI50: read-out: GI50 K-562; for LC50 (50% cell killing): read-out: LC50 K-562, K-562
Method in brief: as §1

LoVo-Dox = assay: Inhibition of cells growth by colorimetric assay (SRB), LoVo-Dox; type: cell-based; settings: SRB, 48 hours exposure; for GI50 / CC50: Homo sapiens, 48 h; for GI50 / TGI LOVO-DOX: LOVO-DOX; for GI50: read-out: GI50 LOVO-DOX; for CC50: read-out: LC50 LOVO-DOX, LOVO-DOX
Method in brief: as §1

A-549 = assay: Inhibition of cells growth by colorimetric assay (SRB), A-549; type: cell-based; settings: SRB, 48 hours exposure; for GI50 / LC50 (concentration for 50% cell killing): Homo sapiens, A549, 48 h; for TGI A-549 / GI50: A-549; for GI50: read-out: GI50 A-549; for LC50 (concentration for 50% cell killing): read-out: LC50 A-549, A-549
Method in brief: as §1

SK-OV-3 = assay: Inhibition of cells growth by colorimetric assay (SRB), SK-OV-3; type: cell-based; settings: SRB, 48 hours exposure; for GI50 / LC50: Homo sapiens, SK-OV-3, 48 h; for GI50 / TGI SK-OV3: SK-OV3; for GI50: read-out: GI50 SK-OV3; for LC50: read-out: LC50 SK-OV3, SK-OV3
Method in brief: as §1

HMEC1 = assay: Inhibition of cells growth by colorimetric assay (SRB), HMEC1; type: cell-based; settings: SRB, 48 hours exposure; for GI50 / LC50: Homo sapiens, HMEC-1, 48 h; for TGI HMEC-1 / GI50: HMEC-1; for GI50: read-out: GI50 HMEC-1; for LC50: read-out: LC50 HMEC-1, HMEC-1
Method in brief: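 48 h SRB cytotoxicity assay; compound range 10–10^−8 μg/ml; seeding 5×10^3 cells/well, 18 h pre-attachment; OD 490 nm; GI, TGI, LC from triplicate means ± SD.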

IGROV-1 = assay: Inhibition of cells growth by colorimetric assay (SRB), IGROV-1; type: cell-based; settings: SRB, 48 hours exposure; for GI50 / CC50: Homo sapiens, IGROV-1, 48 h; for GI50 / TGI IGROV: IGROV; for GI50: read-out: GI50 IGROV; for CC50: read-out: LC50 IGROV, IGROV
Method in brief: as §1

HT-29 = assay: Inhibition of cells growth by colorimetric assay (SRB), HT-29; type: cell-based; settings: SRB, 48 hours exposure; for GI50 / LC50 (concentration for 50% cell killing): Homo sapiens, HT-29, 48 h; for TGI HT-29 / GI50: HT-29; for GI50: read-out: GI50 HT-29; for LC50 (concentration for 50% cell killing): read-out: LC50 HT-29, HT-29
Method in brief: as §1

LoVo = assay: Inhibition of cells growth by colorimetric assay (SRB), LoVo; type: cell-based; settings: SRB, 48 hours exposure; for GI50 / LC50 (concentration for 50% cell killing): Homo sapiens, LoVo, 48 h; for GI50 / TGI LOVO: LOVO; for GI50: read-out: GI50 LOVO; for LC50 (concentration for 50% cell killing): read-out: LC50 LOVO, LOVO
Method in brief: as §1

SK-MEL-28 = assay: Inhibition of cells growth by colorimetric assay (SRB), SK-MEL-28; type: cell-based; settings: SRB, 48 hours exposure; for GI50 / CC50: Homo sapiens, SK-MEL-28, 48 h; for GI50 / TGI MEL-28: MEL-28; for GI50: read-out: GI50 MEL-28; for CC50: read-out: LC50 MEL-28, MEL-28
Method in brief: as §1

IGROV-ET = assay: Inhibition of cells growth by colorimetric assay (SRB), IGROV-ET; type: cell-based; settings: SRB, 48 hours exposure; for GI50 / CC50: Homo sapiens, 48 h; for GI50 / TGI IGROV-ET: IGROV-ET; for GI50: read-out: GI50 IGROV-ET; for CC50: read-out: LC50 IGROV-ET, IGROV-ET
Method in brief: as §1

LNCaP = assay: Inhibition of cells growth by colorimetric assay (SRB), LNCaP; type: cell-based; settings: SRB, 48 hours exposure; for CC50 / GI50: Homo sapiens; for CC50: LNCaP, 48 h, read-out: LC50 LNCAP, LNCAP; for GI50 / TGI LNCAP: LNCAP; for GI50: read-out: GI50 LNCAP
Method in brief: as §1

PANC-1 = assay: Inhibition of cells growth by colorimetric assay (SRB), PANC-1; type: cell-based; settings: SRB, 48 hours exposure; for GI50 / LC50 (concentration for 50% net cell kill): Homo sapiens, PANC-1, 48 h; for GI50 / TGI PANC-1: PANC-1; for GI50: read-out: GI50 PANC-1; for LC50 (concentration for 50% net cell kill): read-out: LC50 PANC-1, PANC-1
Method in brief: as §1

SK-BR-3 = assay: Inhibition of cells growth by colorimetric assay (SRB), SK-BR-3; type: cell-based; settings: SRB, 48 hours exposure; for GI50 / CC50: Homo sapiens, SK-BR-3, 48 h; for GI50 / TGI SK-BR3: SK-BR3; for GI50: read-out: GI50 SK-BR3; for CC50: read-out: LC50 SK-BR3, SK-BR3
Method in brief: as §1

Source text for Heart: (§2) Toxicity was asssessed by the methods reported in Toxicology in Vitro, 15 (2001) 571-577, J. Luber Narod et al.: “Evaluation of the use of in vitro methodolodies as tools for screening new compounds for potential in vivo toxicity”.
Source text for Kidney: as §2
Source text for Liver: as §2
Source text for Myelo: as §2
Source text for Skeletal: as §2

Compound: COc1cc2c(cc1OC)[C@@]1(CS[C@@H]3c4c(OC(C)=O)c(C)c5c(c4[C@H](COC1=O)N1C3[C@H]3c4c(cc(C)c(OC)c4O)C[C@@H]([C@@H]1O)N3C)OCO5)NCC2 (stereo partly shown) [Compound 67]
- TGI DU-145 (DU-145): 8.61E-10
- GI50 (DU-145): 0.433 nM
- CC50 (DU-145): 4470 nM
- Toxicity Data Skeletal (Skeletal): 2.37E-08
- GI50 (K-562): 0.118 nM
- LC50 (50% cell killing) (K-562): 0.8 nM
- TGI K-562 (K-562): 2.85E-10
- GI50 (LoVo-Dox): 4.21 nM
- CC50 (LoVo-Dox): 12800 nM
- TGI LOVO-DOX (LoVo-Dox): 3.65E-08
- TGI A-549 (A-549): 3.63E-09
- GI50 (A-549): 1.31 nM
- LC50 (concentration for 50% cell killing) (A-549): 10.1 nM
- Toxicity Data Heart (Heart): 4.54E-08
- GI50 (SK-OV-3): 0.385 nM
- LC50 (SK-OV-3): 7940 nM
- TGI SK-OV3 (SK-OV-3): 8.52E-10
- Toxicity Data Liver (Liver): 3.20E-08
- Toxicity Data Kidney (Kidney): 5.36E-08
- TGI HMEC-1 (HMEC1): 8.49E-09
- GI50 (HMEC1): 1.02 nM
- LC50 (HMEC1): 5050 nM
- GI50 (IGROV-1): 0.266 nM
- CC50 (IGROV-1): 1.21 nM
- TGI IGROV (IGROV-1): 5.67E-10
- Toxicity Data Myelo (Myelo): 3.27E-08
- TGI HT-29 (HT-29): 5.59E-09
- GI50 (HT-29): 0.741 nM
- LC50 (concentration for 50% cell killing) (HT-29): 12900 nM
- GI50 (LoVo): 0.602 nM
- LC50 (concentration for 50% cell killing) (LoVo): 17.7 nM
- TGI LOVO (LoVo): 3.34E-09
- GI50 (SK-MEL-28): 0.411 nM
- CC50 (SK-MEL-28): 6.24 nM
- TGI MEL-28 (SK-MEL-28): 9.90E-10
- GI50 (IGROV-ET): 1.88 nM
- CC50 (IGROV-ET): 4960 nM
- TGI IGROV-ET (IGROV-ET): 7.02E-09
- CC50 (LNCaP): 0.844 nM
- GI50 (LNCaP): 0.307 nM
- TGI LNCAP (LNCaP): 5.09E-10
- GI50 (PANC-1): 0.443 nM
- LC50 (concentration for 50% net cell kill) (PANC-1): 2670 nM
- TGI PANC-1 (PANC-1): 1.09E-09
- GI50 (SK-BR-3): 0.394 nM
- CC50 (SK-BR-3): 7.48 nM
- TGI SK-BR3 (SK-BR-3): 1.11E-09

Compound: COc1cc2c(cc1OC(=O)c1cc3ccccc3oc1=O)CCN[C@]21CS[C@@H]2c3c(OC(C)=O)c(C)c4c(c3[C@H](COC1=O)N1C2[C@H]2c3c(cc(C)c(OC)c3O)C[C@@H]([C@@H]1O)N2C)OCO4 (stereo partly shown) [Compound 76]
- TGI DU-145 (DU-145): 6.16E-10
- GI50 (DU-145): 0.249 nM
- CC50 (DU-145): 2140 nM
- Toxicity Data Skeletal (Skeletal): 2.15E-09
- GI50 (K-562): 0.00278 nM
- LC50 (50% cell killing) (K-562): 0.351 nM
- TGI K-562 (K-562): 3.78E-11
- GI50 (LoVo-Dox): 13.9 nM
- CC50 (LoVo-Dox): 107 nM
- TGI LOVO-DOX (LoVo-Dox): 4.70E-08
- TGI A-549 (A-549): 4.31E-09
- GI50 (A-549): 2.06 nM
- LC50 (concentration for 50% cell killing) (A-549): 9.07 nM
- Toxicity Data Heart (Heart): 1.62E-08
- GI50 (SK-OV-3): 0.293 nM
- LC50 (SK-OV-3): 4810 nM
- TGI SK-OV3 (SK-OV-3): 8.93E-10
- Toxicity Data Liver (Liver): 1.35E-08
- Toxicity Data Kidney (Kidney): 3.20E-09
- TGI HMEC-1 (HMEC1): 6.55E-09
- GI50 (HMEC1): 1.83 nM
- LC50 (HMEC1): 186 nM
- GI50 (IGROV-1): 0.192 nM
- CC50 (IGROV-1): 1.66 nM
- TGI IGROV (IGROV-1): 4.56E-10
- Toxicity Data Myelo (Myelo): 8.19E-09
- TGI HT-29 (HT-29): 6.18E-09
- GI50 (HT-29): 1.28 nM
- LC50 (concentration for 50% cell killing) (HT-29): 4520 nM
- GI50 (LoVo): 1.03 nM
- LC50 (concentration for 50% cell killing) (LoVo): 10.8 nM
- TGI LOVO (LoVo): 3.30E-09
- GI50 (SK-MEL-28): 0.622 nM
- CC50 (SK-MEL-28): 8.28 nM
- TGI MEL-28 (SK-MEL-28): 2.51E-09
- GI50 (IGROV-ET): 1.52 nM
- CC50 (IGROV-ET): 21 nM
- TGI IGROV-ET (IGROV-ET): 3.92E-09
- CC50 (LNCaP): 0.891 nM
- GI50 (LNCaP): 0.217 nM
- TGI LNCAP (LNCaP): 4.40E-10
- GI50 (PANC-1): 1.22 nM
- LC50 (concentration for 50% net cell kill) (PANC-1): 44.1 nM
- TGI PANC-1 (PANC-1): 4.68E-09
- GI50 (SK-BR-3): 0.337 nM
- CC50 (SK-BR-3): 6.17 nM
- TGI SK-BR3 (SK-BR-3): 1.24E-09
